Assays:
[1] = system: NCI-H358 cells (K-Ras G12C); experiment: Potency assay: pERK in NCI-H358 cells; assay type: cell-based, human; details: Homo sapiens, NCI-H358; H358 KRAS G12C; read-out: pERK EC50
In short: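 pERK decrease read by AlphaLISA SureFire p-ERK1/2 or In-Cell Western after 4 h compound exposure at 37 °C, 5% CO2.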

NRAS Q61K = NRAS Q61K (Homo sapiens (Human), UniProt P01111+P62937, Q61K); experiment: Ras-Raf (BRAF RBD) disruption / FRET / MOA assay, NRAS Q61K; assay type: biochemical; details: NRAS Q61K; Ras-Raf disruption/FRET/MOA assay; read-out: IC50* NRAS Q61K FRET data
Sequence of NRAS Q61K (P01111 whole entry Q61K): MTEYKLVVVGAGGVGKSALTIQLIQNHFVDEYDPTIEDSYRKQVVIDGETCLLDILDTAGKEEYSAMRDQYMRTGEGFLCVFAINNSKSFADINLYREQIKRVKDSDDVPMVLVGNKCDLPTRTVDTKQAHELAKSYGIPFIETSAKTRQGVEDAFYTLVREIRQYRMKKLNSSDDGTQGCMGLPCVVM
Sequence of NRAS Q61K (P62937 whole entry): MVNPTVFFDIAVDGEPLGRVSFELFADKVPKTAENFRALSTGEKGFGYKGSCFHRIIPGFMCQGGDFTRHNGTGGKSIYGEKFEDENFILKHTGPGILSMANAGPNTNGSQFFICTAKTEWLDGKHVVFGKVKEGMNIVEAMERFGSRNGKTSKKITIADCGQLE
In short: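 Compounds (30 μM top final, 10-point 3-fold dilutions) incubated 3 h at 25° C with nucleotide-loaded Ras, cyclophilin A and BRAF RBD. Detection with 10 nM anti-His Eu-W1024 and 50 nM anti-GST allophycocyanin over another 1.5 h. Lowered TR-FRET ratio relative to DMSO wells gives IC50.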

Row | Compound | EC50 [1] | IC50 (NRAS Q61K)
1 | C=CC(=O)N1CCC[C@@H]2CN(C(=O)N(C)[C@H](C(=O)N[C@H]3Cc4nc(cs4)-c4ccc5c(c4)c(c(-c4cccnc4[C@H](C)OC)n5CC)CC(C)(C)COC(=O)[C@@H]4CCCN(N4)C3=O)C(C)C)C[C@@H]21 (atropisomer, axis not shown) [Example A619] | < 5 µM | 100 to 1000 nM
2 | CCn1c(-c2cccnc2[C@H](C)OC)c2c3cc(ccc31)-c1csc(n1)C[C@H](NC(=O)[C@H](C(C)C)N(C)C(=O)N1CCC3(CC1)CN(C(=O)/C=C/CF)C3)C(=O)N1CCC[C@H](N1)C(=O)OCC(C)(C)C2 (atropisomer, axis not shown) [Example A622] | < 5 µM | 10 to 100 nM
3 | CCn1c(-c2cccnc2[C@H](C)OC)c2c3cc(ccc31)-c1csc(n1)C[C@H](NC(=O)[C@@H](F)COC1CN(C(=O)C#CC(C)(C)N(C)C)C1)C(=O)N1CCC[C@H](N1)C(=O)OCC(C)(C)C2 (atropisomer, axis not shown) [Example A626] | < 5 µM | 1000 to 10000 nM
4 | CO[C@@H](C)c1ncccc1-c1c2c3cc(ccc3n1CC(F)(F)F)N1CCO[C@@H](C[C@H](NC(=O)[C@H](C(C)C)N3CC[C@@]4(CCN(C(=O)C#CC(C)(C)N(C)C)C4)C3=O)C(=O)N3CCC[C@H](N3)C(=O)OCC(C)(C)C2)C1 (atropisomer, axis not shown) [Example A628] | < 5 µM | > 10000 nM
5 | C=CC(=O)N(C)CCN1CCN(C(=O)N(C)[C@H](C(=O)N[C@H]2Cc3nc(cs3)-c3ccc4c(c3)c(c(-c3cccnc3[C@H](C)OC)n4CC)CC(C)(C)COC(=O)[C@@H]3CCCN(N3)C2=O)C(C)C)CC1 (atropisomer, axis not shown) [Example A630] | < 5 µM | 100 to 1000 nM
6 | C=CC(=O)N(C)[C@H]1CN(C(=O)N(C)[C@H](C(=O)N[C@H]2Cc3nc(cs3)-c3ccc4c(c3)c(c(-c3cccnc3[C@H](C)OC)n4CC)CC(C)(C)COC(=O)[C@@H]3CCCN(N3)C2=O)C(C)C)C[C@H]1F (atropisomer, axis not shown) [Example A631] | < 5 µM | 10 to 100 nM
7 | C=CC(=O)N1CC[C@H](C(=O)N(C)[C@@H](CC(F)(F)F)C(=O)N[C@H]2Cc3cccc(c3)-c3ccc4c(c3)c(c(-c3cccnc3[C@H](C)OC)n4CC)CC(C)(C)COC(=O)[C@@H]3CCCN(N3)C2=O)C1 (atropisomer, axis not shown) [Example A639] | < 5 µM | 1000 to 10000 nM
8 | CCn1c(-c2cccnc2[C@H](C)OC)c2c3cc(ccc31)N1CCO[C@@H](C[C@H](NC(=O)[C@@H](COC3CCN(C(=O)C#CC(C)(C)N(C)C)CC3)C(C)C)C(=O)N3CCC[C@H](N3)C(=O)OCC(C)(C)C2)C1 (atropisomer, axis not shown) [Example A643, (2R)-2-(((1-(4-(dimethylamino)-4-methylpent-2-ynoyl)piperidin-4-yl)oxy)methyl)-N-((2^2S,6^3S,4S)-1^1-ethyl-1^2-(2-((S)-1-methoxyethyl)pyridin-3-yl)-10,10-dimethyl-5,7-dioxo-6^1,6^2,6^3,6^4,6^5,6^6-hexahydro-1^1H-8-oxa-2(4,2)-morpholina-1(5,3)-indola-6(1,3)-pyridazinacycloundecaphane-4-yl)-3-methylbutanamide] | < 5 µM | > 10000 nM
9 | CCn1c(-c2cccnc2[C@H](C)OC)c2c3cc(ccc31)-c1cccc(c1)C[C@H](NC(=O)[C@@H](COC1CN(C(=O)C#C[C@H]3COCCN3C)C1)C(C)C)C(=O)N1CCC[C@H](N1)C(=O)OCC(C)(C)C2 (atropisomer, axis not shown) [Example A644] | < 5 µM | > 10000 nM
10 | CCn1c(-c2cccnc2[C@H](C)OC)c2c3cc(ccc31)-c1cccc(c1)C[C@H](NC(=O)[C@@H](COC1CN(C(=O)C#C[C@@H]3OCCCN3C)C1)C(C)C)C(=O)N1CCC[C@H](N1)C(=O)OCC(C)(C)C2 (atropisomer, axis not shown) [Example A648] | < 5 µM | > 10000 nM
11 | CCn1c(-c2cccnc2[C@H](C)OC)c2c3cc(ccc31)-c1cnc(o1)C[C@H](NC(=O)[C@@H](COC1CN(C(=O)C#CC(C)(C)N(C)C)C1)C(C)C)C(=O)N1CCC[C@H](N1)C(=O)OCC(C)(C)C2 (atropisomer, axis not shown) [Example A649] | < 5 µM | > 10000 nM
12 | CCn1c(-c2cccnc2[C@H](C)OC)c2c3cc(ccc31)-c1csc(n1)C[C@H](NC(=O)[C@H](C(C)C)N(C)C(=O)N1CCC3(CC1)CN(C(=O)/C=C/CN(C)C)C3)C(=O)N1CCC[C@H](N1)C(=O)OCC(C)(C)C2 (atropisomer, axis not shown) [Example A650] | < 5 µM | 10 to 100 nM
13 | CCn1c(-c2cccnc2[C@H](C)OC)c2c3cc(ccc31)-c1csc(n1)C[C@H](NC(=O)[C@H](C(C)C)N(C)C(=O)N1CCC13CN(C(=O)C#CC(C)(C)N(C)C)C3)C(=O)N1CCC[C@H](N1)C(=O)OCC(C)(C)C2 (atropisomer, axis not shown) [Example A656] | < 5 µM | 100 to 1000 nM
14 | CO[C@@H](C)c1ncccc1-c1c2c3cc(ccc3n1CC(F)(F)F)-c1csc(n1)C[C@H](NC(=O)[C@H](C(C)C)N(C)C(=O)N1CCN(C(=O)/C=C/CN(C)C)C3(CC3)C1)C(=O)N1CCC[C@H](N1)C(=O)OCC(C)(C)C2 (atropisomer, axis not shown) [Example A664] | < 5 µM | 10 to 100 nM
15 | C=CC(=O)N1CC(N2CCN(C(=O)N(C)[C@H](C(=O)N[C@H]3Cc4nc(cs4)-c4ccc5c(c4)c(c(-c4cccnc4[C@H](C)OC)n5CC)CC(C)(C)COC(=O)[C@@H]4CCCN(N4)C3=O)C(C)C)CC2)C1 (atropisomer, axis not shown) [Example A668] | < 5 µM | 10 to 100 nM
16 | CO[C@@H](C)c1ncccc1-c1c2c3cc(ccc3n1CC(F)(F)F)-c1nc(co1)C[C@H](NC(=O)[C@@H](COC1CN(C(=O)C#CC(C)(C)N(C)C)C1)C(C)C)C(=O)N1CCC[C@H](N1)C(=O)OCC(C)(C)C2 (atropisomer, axis not shown) [Example A674] | < 5 µM | > 10000 nM
17 | C=CC(=O)N1CC[C@@]2(COCCN2C(=O)N(C)[C@H](C(=O)N[C@H]2Cc3nc(cs3)-c3ccc4c(c3)c(c(-c3cccnc3[C@H](C)OC)n4CC)CC(C)(C)COC(=O)[C@@H]3CCCN(N3)C2=O)C(C)C)C1 (atropisomer, axis not shown) [Example A677] | < 5 µM | 100 to 1000 nM
18 | C=CC(=O)N1CCC2(CC1)CCN2C(=O)N(C)[C@H](C(=O)N[C@H]1Cc2nc(cs2)-c2ccc3c(c2)c(c(-c2cccnc2[C@H](C)OC)n3CC)CC(C)(C)COC(=O)[C@@H]2CCCN(N2)C1=O)C(C)C (atropisomer, axis not shown) [Example A678] | < 5 µM | 10 to 100 nM
19 | CCn1c(-c2cccnc2[C@H](C)OC)c2c3cc(ccc31)-c1csc(n1)C[C@H](NC(=O)[C@H](C(C)C)N(C)C(=O)N1CCC3(CC1)CN(C(=O)/C=C/C(F)F)C3)C(=O)N1CCC[C@H](N1)C(=O)OCC(C)(C)C2 (atropisomer, axis not shown) [Example A683] | < 5 µM | 10 to 100 nM
20 | C=CC(=O)N1CC[C@H](C(=O)N(C)[C@H](C(=O)N[C@H]2Cc3cccc(c3)-c3ccc4c(c3)c(c(-c3cccnc3[C@H](C)OC)n4CC)CC(C)(C)COC(=O)[C@@H]3CCCN(N3)C2=O)C(C)(C)F)C1 (atropisomer, axis not shown) [Example A693] | < 5 µM | 1000 to 10000 nM
21 | C=CC(=O)N1CCC2(CCN(C(=O)N(C)[C@H](C(=O)N[C@H]3Cc4nc(cs4)-c4ccc5c(c4)c(c(-c4cccnc4[C@H](C)OC)n5CC)CC(C)(C)COC(=O)[C@@H]4CCCN(N4)C3=O)C(C)C)CC2)C1 (atropisomer, axis not shown) [Example A698] | < 5 µM | 10 to 100 nM
22 | CCn1c(-c2cccnc2[C@H](C)OC)c2c3cc(ccc31)-c1csc(n1)C[C@H](NC(=O)[C@H](C(C)C)N(C)C(=O)N1CCN(C(=O)/C=C/CN(C)C)C3(CC3)C1)C(=O)N1CCC[C@H](N1)C(=O)OCC(C)(C)C2 (atropisomer, axis not shown) [Example A701] | < 5 µM | 10 to 100 nM
23 | C=CC(=O)N1CCC2(CC1)CN(C(=O)N(C)[C@H](C(=O)N[C@H]1Cc3nc(cs3)-c3ccc4c(c3)c(c(-c3cccnc3[C@H](C)OC)n4CC)CC(C)(C)COC(=O)[C@@H]3CCCN(N3)C1=O)C(C)C)C2 (atropisomer, axis not shown) [Example A702] | < 5 µM | 10 to 100 nM
24 | C=CC(=O)N(C)[C@H]1C[C@@H](N(C)C(=O)N(C)[C@H](C(=O)N[C@H]2Cc3nc(cs3)-c3ccc4c(c3)c(c(-c3cccnc3[C@H](C)OC)n4CC)CC(C)(C)COC(=O)[C@@H]3CCCN(N3)C2=O)C(C)C)C1 (atropisomer, axis not shown) [Example A704] | < 5 µM | 10 to 100 nM
25 | C=CC(=O)N(C)[C@H]1C[C@H](N(C)C(=O)N(C)[C@H](C(=O)N[C@H]2Cc3nc(cs3)-c3ccc4c(c3)c(c(-c3cccnc3[C@H](C)OC)n4CC)CC(C)(C)COC(=O)[C@@H]3CCCN(N3)C2=O)C(C)C)C1 (atropisomer, axis not shown) [Example A712] | < 5 µM | 10 to 100 nM
26 | C=CC(=O)N1CCO[C@@H]2CN(C(=O)N(C)[C@H](C(=O)N[C@H]3Cc4nc(cs4)-c4ccc5c(c4)c(c(-c4cccnc4[C@H](C)OC)n5CC)CC(C)(C)COC(=O)[C@@H]4CCCN(N4)C3=O)C(C)C)C[C@@H]21 (atropisomer, axis not shown) [Example A714] | < 5 µM | 100 to 1000 nM
